Measured values reported in patent EP0973790B1, “ESTRA-5(10),7-DIENES WITH ESTROGENIC ACTIVITY” (Wyeth, priority 1997, dated 1998).

Key:
[1] = tested on: Immature rats; test: In vivo uterotropic activity; conditions: for Uterine Weight (mg) ± SD: n=6/group
[2] = molecular target: human estrogen receptor (hER-α) (Homo sapiens, UniProt P03372); test: Estrogen receptor binding, whole cell test procedure; conditions: comparison values for known estrogens
human estrogen receptor (hER-α), sequence (P03372 whole entry): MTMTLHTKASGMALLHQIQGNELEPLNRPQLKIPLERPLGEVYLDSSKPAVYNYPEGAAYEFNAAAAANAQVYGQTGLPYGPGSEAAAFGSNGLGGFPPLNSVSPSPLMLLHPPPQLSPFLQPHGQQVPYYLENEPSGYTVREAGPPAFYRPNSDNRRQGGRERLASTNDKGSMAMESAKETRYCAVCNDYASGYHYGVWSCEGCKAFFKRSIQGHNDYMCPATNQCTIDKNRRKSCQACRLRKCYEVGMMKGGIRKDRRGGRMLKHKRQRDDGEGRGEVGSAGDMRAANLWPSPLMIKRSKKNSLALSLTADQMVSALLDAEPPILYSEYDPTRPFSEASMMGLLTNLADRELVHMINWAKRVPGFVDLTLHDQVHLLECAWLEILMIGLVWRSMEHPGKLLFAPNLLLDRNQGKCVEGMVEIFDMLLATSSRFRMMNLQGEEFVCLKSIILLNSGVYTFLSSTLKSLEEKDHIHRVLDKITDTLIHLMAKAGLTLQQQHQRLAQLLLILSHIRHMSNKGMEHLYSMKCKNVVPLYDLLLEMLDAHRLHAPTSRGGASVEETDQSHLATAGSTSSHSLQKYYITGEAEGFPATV

Structure (SMILES) | Uterine Weight (mg) ± SD ([1]; 1 µg, three days S.C.) [mg] | Uterine Weight (mg) ± SD ([1]; 10 µg, three days S.C.) [mg] | Uterine Weight (mg) ± SD ([1]; 100 µg, three days S.C.) [mg] | Uterine Weight (mg) ± SD ([1]; 500 µg, three days S.C.) [mg] | other results
CC12CCC3C(=CCC4=C3CCC(O)C4)C1CCC2=O (stereo not drawn) [5A, estra-5(10),7-dien-3α-ol-17-one] | 28.7 ± 2.7 | 33.3 ± 4.4 | 66.5 ± 4.7 | 78.9 ± 13.6 | estimated EC50 ([1]; uterine stimulation, in words relative to 5B): somewhat lower
C[C@]12CC[C@@H]3c4ccc(O)cc4CC[C@H]3[C@@H]1CCC2=O [estrone, reference compound] | – | – | – | – | EC50 ([1]; estimated in similar test procedures): 0.2 mg/kg
C#C[C@]1(O)CC[C@H]2[C@@H]3CCc4cc(O)ccc4[C@H]3CC[C@@]21C [Ethinyl Estradiol, reference compound] | – | – | – | – | Uterine Weight (mg) ± SD ([1]; 0.5 µg, three days): 101.2 ± 2.8 mg
CC12CCC3C(=CCC4=C3CCC(O)C4)C1CCC2=O (stereo not drawn) [5B, estra-5(10),7-dien-3β-ol-17-one] | 31.7 ± 6.6 | 43.5 ± 6.9 | 79.7 ± 5.8 | 82.6 ± 8.6 | Uterine Weight (mg) ± SD ([1]; 0.1 µg, three days S.C.): 34.1 ± 6.2 mg
C[C@]12CCc3c(ccc4cc(O)ccc34)[C@@H]1CCC2=O [equilenen] | – | – | – | – | Ki [2]: 375 nM
